Assay results reported in patent US8993593B2, “N-(4-(6-fluoro-3,4-dihydroisoquinolin-2(1H)-yl)-2,6-dimethylphenyl)-3,3-dimethylbutanamide as potassium channel modulators” (Valeant Pharmaceuticals International, priority 2006, dated 2015).

Experiments:
KCNQ1 = KCNQ1 (Homo sapiens, UniProt P51787); assay: Two-electrode voltage-clamp in Xenopus laevis oocytes, KCNQ1; format: cell-based; parameters: KCNQ1 Block (%): dose or concentration left out as unconfirmed
Procedure: (§1) Female Xenopus laevis extracted ovaries were purchased from eNASCO (LM00935MX, eNASCO Fort Atkinson, Wis.). […] Approximately 50 nl cRNA (about 50 ng) was injected for KCNQ1, KCNQ4, and KCNQ5 using a Nanoject microinjector (Drummond, Broomall, Pa., USA). For co-expression of KCNQ2 and KCNQ3 and of KCNQ1 and KCNE1, cRNA's were mixed in equal molar ratios before injection of approximately 50 nl. […] Oocytes were kept in Culture Barth solution at 19° C. which was changed daily and currents were recorded after 3 to 5 days.
(§2) KCNQ channel currents expressed in Xenopus laevis oocytes were recorded using a two-electrode voltage-clamp. […] The oocytes were placed in custom built perfusion chambers connected to a continuous flow system and impaled with a current electrode and a voltage-clamp electrode pulled from borosilicate glass on a Flaming/Brown Micropipette Puller (Sutter Instruments Co, Novato, Calif., USA).
(§3) All compounds were dissolved in DMSO to obtain concentrated stock solutions. On the day of electrophysiological experiments the stock solutions were thawed and diluted in recording solution to their final concentrations. The final DMSO concentration never exceeded 0.1%. Compound delivery was performed using a custom built multi-barrel apparatus connected to the flow system.
(§4) Data were acquired by means of an Axograph X software (Axograph Scientific, Sydney, AU) and analyzed using Graph Pad Prism (GraphPad Software Inc., CA, USA). […]
(§5) After steady channel current was recorded in the presence of Retigabine at its EC75, recorded oocyte was washed with the recording solution until its steady current returned to its normal level without the presence of any drugs. Then the channel steady current was recorded in the presence of the test compound at its EC75. The percent efficacy was then expressed as: % efficacy=(C2/C 1)×100 where C2 is the recorded steady current in the presence of follow-on compound at its EC75 and C1 is the recorded steady current in the presence of Retigabine at its EC75.

hERG = hERG (Homo sapiens, UniProt Q12809); assay: in vitro
[1] = test system: mouse maximal electroshock seizure (MES) model; assay: Maximal electroshock seizure (MES) test, mouse; format: in vivo; settings: Mus musculus, po; murine MES model, dosed orally 2 hours prior to testing; read-out: ED50, inhibition of seizures
Text: The MES testing protocol is based on procedures established at the National Institute of Neurological Disorders and Stroke in conjunction with the Anticonvulsant Screening Program (ASP) at the University of Utah (White, H. S., Woodhead, J. H., Wilcox, K. S., Stables, J. P., Kupferberg, H. J and Wolf, H. H. 2002. “General Principles: Discovery and Preclinical Development of Antiepileptic Drugs,” in Antiepileptic Drugs, 5th Edition, R. H. Levy, ed.; R. H. Mattson, B. S. Meldrum, and E. Perucca. Philadelphia, Lippincott Williams & Wilkins.), The goal of the test rapid identification and characterization of the in vivo anticonvulsant activity of any compounds that have been shown active in PC-12 cellular based Rb^+ efflux assay.
Adult male CF-I albino mice (18-25 g, Charles River Laboratories) are exclusively used for in-house MES screen of compounds. Male Sprague-Dawley albino rats (100-125 g, Charles River Laboratories) are also used to test anticonvulsant compounds. Variability of test outcomes is reduced by using animals of the same sex, age, and weight. Animals are permitted to rest and recover from transit for at least 48 hr prior to experimentation. Animals are used for AED testing only once. In some instances, the animals may be anesthetized prior to blood collection and/or whole brain extraction for pharmacokinetic assay. All animals are maintained and handled as outlined in standard animal care guidelines.
In the experiments, testing compounds are prepared as suspensions in 0.5% methyl cellulose (Sigma, Cat #M0512, Viscosity 4000 cP at 20° C.) in water, regardless of solubility. Dry powder compounds are initially ground with a glass rod in a test tube in several drops of methyl cellulose to create a paste and to break down any large chunks. After several minutes of grinding, the volume of the suspension is increased to the final concentration desired. The suspension is then sonicated using a Branson sonicator model 3510 in a water bath at room temperature for 15 minutes. Compound suspensions are further vortexed prior to animal dosing. In some of the cases, DMSO is used to initially solubilize compounds in small volumes and then this solution is added to the 0.5% methyl cellulose solution, in order to create more even and less aggregated compound suspensions. The final concentration of DMSO is 3.75%, an amount with no apparent toxicity or neuroprotective effects in our usual rotarod and MES tests. Methyl cellulose/DMSO compound suspensions are identically prepared for intraperitoneally (i.p.) to mice or orally (p.o.) to rat dosing.
Initially the animals are weighed with an electronic scale and then marked. Data recording sheets are generated for each compound assessment. Mice or rats are dosed with the compound suspension at 0.01 mL/g of body weight. The typical injection volume range is between 180-250 μl for mice. […] Rats are p.o. dosed using a flexible feeding tube, typically starting at a compound dose of 5 mg/kg.
A Rodent Electroconvulsive Stimulator (Model 200, Hamit-Darvin-Freesh, Snow Canyon Clinic, Ivins, Utah) is used for MES testing. A 60-Hz alternating current (50 mA for mice; 150 mA for rats) is delivered for 0.2 seconds through corneal electrodes to the mice. A drop of 0.5% tetracaine (Sigma, Cat. #T-7508) solution is placed on the eye prior to current delivery. The electrodes are subsequently placed gently onto the eyes of the animal and the electrical shock is initiated by triggering through a foot-pedal activator. The animals are restrained by hand and gently released as the shock is delivered and the seizure commences. Animals are monitored for hind limb tonic extension as the end point for this test. Current delivery is recorded as a measure of overall seizure-induction potential. Electrical current delivery can vary from approximately 30-55 mA (mice) or 90-160 mA (rats) depending on impedance in the animal and quality of the current delivery (ie. correct placement of the electrodes on the cornea). […]

KCNQ4 = KCNQ4 (Homo sapiens, UniProt P56696); assay: Two-electrode voltage-clamp in Xenopus laevis oocytes, KCNQ4; format: cell-based
Procedure: as §1, §2, §3, §4, §5

Chain of hERG (Q12809 whole entry): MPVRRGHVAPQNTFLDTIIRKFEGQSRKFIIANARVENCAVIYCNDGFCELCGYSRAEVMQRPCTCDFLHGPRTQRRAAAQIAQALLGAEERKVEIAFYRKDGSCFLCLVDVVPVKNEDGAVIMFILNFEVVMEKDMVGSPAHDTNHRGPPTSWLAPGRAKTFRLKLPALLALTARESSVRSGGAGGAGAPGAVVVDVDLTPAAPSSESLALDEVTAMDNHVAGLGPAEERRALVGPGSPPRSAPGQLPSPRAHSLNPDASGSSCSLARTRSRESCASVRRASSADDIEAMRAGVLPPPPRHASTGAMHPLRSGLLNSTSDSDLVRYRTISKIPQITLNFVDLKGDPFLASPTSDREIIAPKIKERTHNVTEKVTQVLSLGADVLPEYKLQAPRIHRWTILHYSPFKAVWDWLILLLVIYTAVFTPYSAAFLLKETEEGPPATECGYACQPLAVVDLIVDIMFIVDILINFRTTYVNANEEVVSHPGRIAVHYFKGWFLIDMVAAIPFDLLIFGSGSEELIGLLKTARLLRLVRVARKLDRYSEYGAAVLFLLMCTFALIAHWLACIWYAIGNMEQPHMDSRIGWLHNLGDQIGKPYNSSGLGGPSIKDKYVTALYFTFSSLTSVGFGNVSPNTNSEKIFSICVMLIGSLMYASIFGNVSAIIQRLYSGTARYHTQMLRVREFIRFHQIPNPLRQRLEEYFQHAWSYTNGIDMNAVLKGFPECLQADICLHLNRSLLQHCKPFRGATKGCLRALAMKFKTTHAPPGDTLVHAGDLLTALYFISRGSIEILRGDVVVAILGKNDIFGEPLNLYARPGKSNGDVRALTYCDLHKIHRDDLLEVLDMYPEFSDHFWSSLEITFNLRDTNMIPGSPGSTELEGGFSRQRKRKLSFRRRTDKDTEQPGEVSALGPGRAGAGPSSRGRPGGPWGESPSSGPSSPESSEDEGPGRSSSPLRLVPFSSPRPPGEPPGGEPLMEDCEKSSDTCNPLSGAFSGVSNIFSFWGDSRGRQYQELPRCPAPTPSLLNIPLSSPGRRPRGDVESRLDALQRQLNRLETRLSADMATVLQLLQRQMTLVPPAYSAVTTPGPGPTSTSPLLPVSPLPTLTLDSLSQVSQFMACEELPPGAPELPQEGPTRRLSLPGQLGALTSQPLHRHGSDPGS

For `Cc1cc(N2CCc3cc(F)ccc3C2)cc(C)c1NC(=O)CC(C)(C)C` [compound A, N-[4-(6-fluoro-3,4-dihydro-1H-isoquinolin-2-yl)-2,6-dimethylphenyl]-3,3-dimethyl butanamide], the “KCNQ1 Block (%)” value (KCNQ1; oocyte expression) was 0%, the “effect on KCNQ1 (cardiac potential)” value (KCNQ1; selectivity versus KCNQ2-5, in words) was “not affecting” and the inhibition at 30 µM (hERG) was -0.1%. For the same compound, the ED50 [1] was 2.2 mg/kg, the EC50 (KCNQ4) was 630 nM and the “KCNQ4 Efficacy Relative to Retigabine (%)” value (KCNQ4; oocyte expression, at EC75) was 100%.
